Biological target: T1, recombinant human MetAP2 (Homo sapiens, UniProt P50579)
T1 construct: Flag; made in house; host or cells: Sf9 insect cells
Experiment: Inhibition of recombinant human MetAP2 activity (MAS substrate, amino acid oxidase/Amplex red fluorescence)
Assay type: biochemical
Conditions: manganese enzyme, 30 minutes at 25° C., pH 7.5, 0.75 mM MAS substrate, 1% DMSO; read-out: Activity (MetAP2 IC50 class)
Experimental: Compounds are tested for their capacity to inhibit recombinant human MetAP2 activity using the following assay.
Human recombinant Flag-MetAP2 expressed in Sf9 cells followed by affinity purification and EDTA treatment to remove endogenous active site cation was dialysed against MnCl2 to produce the manganese enzyme used in the assay. The assay was carried out for 30 minutes at 25° C. in 50 mM HEPES buffer containing 100 mM NaCl, pH 7.5 the presence of 0.75 mM Methionine-Alanine-Serine (MAS) substrate and 50 μg/mL amino acid oxidase using a dilution of purified MetAP2 giving approximately 50,000 RFU control activity. Cleavage of the substrate by MetAP2 and oxidation of free methionine by amino acid oxidase was detected and quantified using fluorescence generated by Amplex red (10-acetyl-3,7-dihydroxyphenoxazine) in combination with horseradish peroxidase which detects H2O2 released during the oxidation step. The fluorescent signal was detected using a multiwell fluorimeter. Compounds were diluted in DMSO prior to addition to assay buffer, the final DMSO concentration in the assay being 1%.
The IC50 is defined as the concentration at which a given compound achieves 50% inhibition of control. IC50 values are calculated using the XLfit software package (version 2.0.5).

T1 sequence (P50579 whole entry): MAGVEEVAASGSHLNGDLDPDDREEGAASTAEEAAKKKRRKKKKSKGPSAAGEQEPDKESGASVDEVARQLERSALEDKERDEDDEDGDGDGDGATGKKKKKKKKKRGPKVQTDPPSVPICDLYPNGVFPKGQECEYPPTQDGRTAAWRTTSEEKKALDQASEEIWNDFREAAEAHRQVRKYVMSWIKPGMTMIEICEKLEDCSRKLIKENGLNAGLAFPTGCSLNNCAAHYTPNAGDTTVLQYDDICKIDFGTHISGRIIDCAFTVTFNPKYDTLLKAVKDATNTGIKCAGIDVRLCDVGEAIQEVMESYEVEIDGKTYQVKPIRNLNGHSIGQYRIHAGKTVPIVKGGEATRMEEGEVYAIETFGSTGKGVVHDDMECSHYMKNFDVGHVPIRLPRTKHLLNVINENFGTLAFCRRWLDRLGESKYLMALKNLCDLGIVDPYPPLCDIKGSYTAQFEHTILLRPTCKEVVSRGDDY

**Q.** With `O=S(=O)(Nc1ccc2c(c1-c1nnn[nH]1)CCCC2)c1ccccc1` [N-[1-(1H-Tetrazol-5-yl)-5,6,7,8-tetrahydronaphthalen-2-yl]-benzenesulfonamide] as the compound, how does the IC50 read?
**A.** Its IC50 is greater than 1000 nM.

**Q.** Which IC50 does the source give for `O=S(=O)(Nc1cccc(Br)c1-c1nnn[nH]1)c1ccccc1` [N-[3-Bromo-2-(1H-tetrazol-5-yl)-phenyl]-benzenesulfonamide] here?
**A.** The IC50 was greater than 1000 nM.

**Q.** With `O=S(=O)(Nc1cccc(C2CC2)c1-c1nnn[nH]1)c1ccccc1` [N-[3-Cyclopropyl-2-(1H-tetrazol-5-yl)-phenyl]-benzenesulfonamide] as the compound, how does the IC50 read?
**A.** The IC50 was less than 1000 nM.

**Q.** Which IC50 does the source give for `COc1cccc(NS(=O)(=O)c2ccccc2)c1-c1nnn[nH]1` [N-[3-Methoxy-2-(1H-tetrazol-5-yl)-phenyl]-benzenesulfonamide] here?
**A.** The IC50 was less than 1000 nM.

**Q.** Which IC50 does the source give for `Cc1cccc(NS(=O)(=O)c2ccccc2)c1-c1nnn[nH]1` [N-[3-Methyl-2-(1H-tetrazol-5-yl)-phenyl]-benzenesulfonamide] here?
**A.** Its IC50 is greater than 1000 nM.
